Test results published in PubChem BioAssay (NCI).
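Method: 48-hour compound exposure of cells in 96-well plates, five concentrations, linear interpolation of endpoints. TGI: total growth inhibition.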

How the values were obtained:
Assay in all cases: inhibition of tumour cell growth, NCI panel, 48 h
LOX IMVI melanoma = tested on: LOX IMVI melanoma
UACC-257 melanoma = tested on: UACC-257 melanoma
OVCAR-4 ovarian = tested on: OVCAR-4 ovarian
SW-620 colon = tested on: SW-620 colon
HS 578T breast = tested on: HS 578T breast
SF-295 CNS = tested on: SF-295 CNS
M14 melanoma = tested on: M14 melanoma
MOLT-4 leukemia = tested on: MOLT-4 leukemia
UO-31 renal = tested on: UO-31 renal
SN12C renal = tested on: SN12C renal
MCF7 breast = tested on: MCF7 breast
OVCAR-8 ovarian = tested on: OVCAR-8 ovarian
HOP-92 NSCLC = tested on: HOP-92 NSCLC
NCI-H522 lung = tested on: NCI-H522 lung
BT-549 breast = tested on: BT-549 breast
HL-60(TB) leukemia = tested on: HL-60(TB) leukemia
DU-145 prostate = tested on: DU-145 prostate
PC-3 prostate = tested on: PC-3 prostate
COLO 205 colon = tested on: COLO 205 colon
HCC-2998 colon = tested on: HCC-2998 colon
RPMI-8226 leukemia = tested on: RPMI-8226 leukemia
SK-MEL-28 melanoma = tested on: SK-MEL-28 melanoma
EKVX NSCLC = tested on: EKVX NSCLC
SK-OV-3 ovarian = tested on: SK-OV-3 ovarian
NCI-H23 lung = tested on: NCI-H23 lung
OVCAR-5 ovarian = tested on: OVCAR-5 ovarian
SF-539 CNS = tested on: SF-539 CNS
U251 CNS = tested on: U251 CNS
TK-10 renal = tested on: TK-10 renal
UACC-62 melanoma = tested on: UACC-62 melanoma
CAKI-1 renal = tested on: CAKI-1 renal
HOP-62 NSCLC = tested on: HOP-62 NSCLC
IGROV1 ovarian = tested on: IGROV1 ovarian
NCI-H460 lung = tested on: NCI-H460 lung
NCI/ADR-RES ovarian = tested on: NCI/ADR-RES ovarian
HCT-116 colon = tested on: HCT-116 colon
OVCAR-3 ovarian = tested on: OVCAR-3 ovarian
SF-268 CNS = tested on: SF-268 CNS
MDA-MB-231 breast = tested on: MDA-MB-231 breast
A549 NSCLC = tested on: A549 NSCLC
SNB-19 CNS = tested on: SNB-19 CNS
MDA-MB-435 = tested on: MDA-MB-435
SK-MEL-2 melanoma = tested on: SK-MEL-2 melanoma
SK-MEL-5 melanoma = tested on: SK-MEL-5 melanoma
T-47D breast = tested on: T-47D breast
HT29 colon = tested on: HT29 colon
ACHN renal = tested on: ACHN renal
HCT-15 colon = tested on: HCT-15 colon
SNB-75 CNS = tested on: SNB-75 CNS
NCI-H226 lung = tested on: NCI-H226 lung
MALME-3M melanoma = tested on: MALME-3M melanoma
MDA-N = tested on: MDA-N
KM12 colon = tested on: KM12 colon
CCRF-CEM leukemia = tested on: CCRF-CEM leukemia
786-0 renal = tested on: 786-0 renal
A498 renal = tested on: A498 renal

Clc1ccc(Oc2ccc(N=Cc3ccc(Cl)cc3Cl)cc2Cl)cc1
TGI (LOX IMVI melanoma): > 100 µM
TGI (UACC-257 melanoma): > 100 µM
TGI (OVCAR-4 ovarian): > 100 µM
TGI (SW-620 colon): > 100 µM
TGI (HS 578T breast): 71.1 µM
TGI (SF-295 CNS): > 100 µM
TGI (M14 melanoma): 68 µM
TGI (MOLT-4 leukemia): > 100 µM
TGI (UO-31 renal): > 100 µM
TGI (SN12C renal): > 100 µM
TGI (MCF7 breast): > 100 µM
TGI (OVCAR-8 ovarian): > 100 µM
TGI (HOP-92 NSCLC): > 100 µM
TGI (NCI-H522 lung): 92 µM
TGI (BT-549 breast): 93.1 µM
TGI (HL-60(TB) leukemia): 57.6 µM
TGI (DU-145 prostate): > 100 µM
TGI (PC-3 prostate): > 100 µM
TGI (COLO 205 colon): > 100 µM
TGI (HCC-2998 colon): > 100 µM
TGI (RPMI-8226 leukemia): > 100 µM
TGI (SK-MEL-28 melanoma): > 100 µM
TGI (EKVX NSCLC): > 100 µM
TGI (SK-OV-3 ovarian): > 100 µM
TGI (NCI-H23 lung): > 100 µM
TGI (OVCAR-5 ovarian): > 100 µM
TGI (SF-539 CNS): 65.1 µM
TGI (U251 CNS): 89.3 µM
TGI (TK-10 renal): > 100 µM
TGI (UACC-62 melanoma): > 100 µM
TGI (CAKI-1 renal): > 100 µM
TGI (HOP-62 NSCLC): > 100 µM
TGI (IGROV1 ovarian): > 100 µM
TGI (NCI-H460 lung): > 100 µM
TGI (NCI/ADR-RES ovarian): 84.9 µM
TGI (HCT-116 colon): > 100 µM
TGI (OVCAR-3 ovarian): > 100 µM
TGI (SF-268 CNS): > 100 µM
TGI (MDA-MB-231 breast): > 100 µM
TGI (A549 NSCLC): > 100 µM
TGI (SNB-19 CNS): > 100 µM
TGI (MDA-MB-435): 49.7 µM
TGI (SK-MEL-2 melanoma): > 100 µM
TGI (SK-MEL-5 melanoma): > 100 µM
TGI (T-47D breast): > 100 µM
TGI (HT29 colon): > 100 µM
TGI (ACHN renal): > 100 µM
TGI (HCT-15 colon): > 100 µM
TGI (SNB-75 CNS): 87.4 µM
TGI (NCI-H226 lung): > 100 µM
TGI (MALME-3M melanoma): 87.4 µM
TGI (MDA-N): 33.7 µM
TGI (KM12 colon): > 100 µM
TGI (CCRF-CEM leukemia): 44.8 µM
TGI (786-0 renal): 63.5 µM

O=C(CC(=O)N1N=C(N2CCCCC2)CC1c1ccccc1)Nc1ccc(Cl)cc1 (stereo not drawn)
TGI (LOX IMVI melanoma): > 100 µM
TGI (UACC-257 melanoma): > 100 µM
TGI (OVCAR-4 ovarian): > 100 µM
TGI (SW-620 colon): > 100 µM
TGI (HS 578T breast): > 100 µM
TGI (SF-295 CNS): > 100 µM
TGI (M14 melanoma): > 100 µM
TGI (MOLT-4 leukemia): > 100 µM
TGI (UO-31 renal): > 100 µM
TGI (SN12C renal): > 100 µM
TGI (MCF7 breast): > 100 µM
TGI (OVCAR-8 ovarian): > 100 µM
TGI (HOP-92 NSCLC): > 100 µM
TGI (NCI-H522 lung): > 100 µM
TGI (BT-549 breast): > 100 µM
TGI (HL-60(TB) leukemia): > 100 µM
TGI (DU-145 prostate): > 100 µM
TGI (PC-3 prostate): > 100 µM
TGI (COLO 205 colon): > 100 µM
TGI (HCC-2998 colon): > 100 µM
TGI (SK-MEL-28 melanoma): > 100 µM
TGI (EKVX NSCLC): > 100 µM
TGI (NCI-H23 lung): > 100 µM
TGI (OVCAR-5 ovarian): > 100 µM
TGI (U251 CNS): > 100 µM
TGI (TK-10 renal): > 100 µM
TGI (UACC-62 melanoma): > 100 µM
TGI (CAKI-1 renal): > 100 µM
TGI (HOP-62 NSCLC): > 100 µM
TGI (IGROV1 ovarian): > 100 µM
TGI (NCI-H460 lung): > 100 µM
TGI (NCI/ADR-RES ovarian): > 100 µM
TGI (HCT-116 colon): > 100 µM
TGI (OVCAR-3 ovarian): > 100 µM
TGI (SF-268 CNS): > 100 µM
TGI (MDA-MB-231 breast): > 100 µM
TGI (A549 NSCLC): > 100 µM
TGI (SNB-19 CNS): > 100 µM
TGI (MDA-MB-435): > 100 µM
TGI (SK-MEL-2 melanoma): > 100 µM
TGI (SK-MEL-5 melanoma): > 100 µM
TGI (A498 renal): > 100 µM
TGI (T-47D breast): > 100 µM
TGI (HT29 colon): > 100 µM
TGI (ACHN renal): > 100 µM
TGI (HCT-15 colon): > 100 µM
TGI (SNB-75 CNS): > 100 µM
TGI (NCI-H226 lung): > 100 µM
TGI (MALME-3M melanoma): > 100 µM
TGI (MDA-N): > 100 µM
TGI (KM12 colon): > 100 µM
TGI (CCRF-CEM leukemia): > 100 µM
TGI (786-0 renal): > 100 µM
